Test results from EP1769804B1, “hPTH(1-34) for use in preventing or reducing the incidence or severity of vertebral and / or non vertebral fracture in a male human” (priority 1998, dated 2012).
Marks after values point to notes of the source that are not given here.

Tests used:
Ovariectomized Primates = experiment: Cortical histomorphometry of the humerus midshaft; format: in vivo, Macaca fascicularis; details: mean ± SEM
Excerpt: Biomechanical tests were done on lumbar vertebrae L-3 to L-4, the femur neck, humerus midshaft, and on a cortical bone specimen machined from the femur diaphysis (measures defined in Table 2). Conventional static and dynamic histomorphometry were done (measures described in Table 6) on the humerus midshaft, lumbar vertebra L-2, femoral neck, femur midshaft, the radius midshaft and distal radius. Initial statistical analyses compared all groups to vehicle-treated ovariectomized controls. The data is suitable for additional exploratory analyses to examine dose dependency, effects of withdrawal, interactions between outcomes, and changes in time by methods known to those of skill in the art. All assays were conducted and determined by methods known in the art.
For certain experimental subjects, cortical bone of the humerus was examined by histomorphometry and by polarized Fourier transform infrared microscopy. The Fourier transform infrared microscopy was conducted by an adaptation of known methods for such microscopy.

[1] = tested on: ovariectomized cynomolgus monkeys; details: cynomolgus monkey, in vivo
Experimental: The live phase of the study used feral, adult (closed growth plates) cynomolgus primates (Macaca fascicularis), weighing 2.77±0.03 kg (mean ± standard error of the mean [SEM]). Monkeys were held in quarantine for 3 months, then started on a diet containing 0.3% calcium, 0.3% phosphate, and 250 IU vitamin D3/100 g diet, and given fluoridated water (1 ppm fluoride) ad libitum. The calcium content corresponded to 1734 mg calcium/2000 calories. After 1 month on the diet, animals were sorted into groups of 21 or 22, sham operated or ovariectomized. Once daily subcutaneous injections of vehicle (sham and ovariectomized controls) or rhPTH(1-34), at 1 µg/kg (PTH1) or 5 µg/kg (PTH5), were started 24 hours after ovariectomy. Animals were treated for either 18 months (PTH1 and PTHS), or for 12 months followed by withdrawal of treatment (PTH1-W and PTH5-W).

[2] = PTH1-W: withdrawal after 1 µg/kg for 12 months
[3] = PTH5-W: withdrawal after 5 µg/kg for 12 months

teriparatide [rhPTH(1-34)]
Ac.F (Activation frequency) (Ovariectomized Primates; [2]): 3.05 ± 2.15^a cycles/year
B.Ar (Bone area, the total area within the periosteal surface) (Ovariectomized Primates; [2]): 54.94 ± 6.55 mm^2
BFR/BS.Ec (bone formation rate, endocortical surface referent) (Ovariectomized Primates; [2]): 14.89 ± 10.32 µm/day
BFR/BS.Ps (Bone formation rate, periosteal surface referent) (Ovariectomized Primates; [2]): 3.60 ± 3.84^a µm/day
BFR/BV (Bone formation rate, bone volume referent) (Ovariectomized Primates; [2]): 4.39 ± 3.48^a %/year
Ct.Ar (Cortical area) (Ovariectomized Primates; [2]): 38.10 ± 4.83 mm^2
FP (Formation period) (Ovariectomized Primates; [2]): 64.94 ± 11.99 days
L.On.N/Ct.A (Number of fluorochrome labeled osteons per unit cortical area) (Ovariectomized Primates; [2]): 0.50 ± 0.36^a #/mm^2
MAR (Mineral apposition rate, intracortical) (Ovariectomized Primates; [2]): 1.06 ± 0.27 µm/day
MAR.Ec (Mineral apposition rate, endocortical surface) (Ovariectomized Primates; [2]): 0.66 ± 0.16 µm/day
MAR.Ps (mineral apposition rate, periosteal surface) (Ovariectomized Primates; [2]): 0.54 ± 0.15^a µm/day
MS/BS.Ec (mineralizing endocortical surface normalized to total endocortical surface) (Ovariectomized Primates; [2]): 11.74 ± 14.41^a %
MS/BS.Ps (Mineralizing periosteal surface normalized to total periosteal surface) (Ovariectomized Primates; [2]): 3.86 ± 4.83^a %
Me.Ar (Medullary cavity area) (Ovariectomized Primates; [2]): 16.84 ± 3.74 mm^2
O.Wi (Osteoid width) (Ovariectomized Primates; [2]): 3.96 ± 0.83 µm
Po (Porosity, the percentage of bone area occupied by spaces) (Ovariectomized Primates; [2]): 2.23 ± 1.60%
Rs.N/Ct.A (number of resorption spaces per unit cortical area) (Ovariectomized Primates; [2]): 0.12 ± 0.07^a #/mm^2
W.Wi (Osteonal wall width) (Ovariectomized Primates; [2]): 63.12 ± 17.35 µm
omt (Osteoid maturation time) (Ovariectomized Primates; [2]): 3.86 ± 0.74 days
Ac.F (Activation frequency) (Ovariectomized Primates; PTH1: 1 µg/kg for 18 months): 7.69 ± 4.96 cycles/year
B.Ar (Bone area, the total area within the periosteal surface) (Ovariectomized Primates; PTH1: 1 µg/kg for 18 months): 54.22 ± 5.97 mm^2
BFR/BS.Ec (bone formation rate, endocortical surface referent) (Ovariectomized Primates; PTH1: 1 µg/kg for 18 months): 18.14 ± 13.95 µm/day
BFR/BS.Ps (Bone formation rate, periosteal surface referent) (Ovariectomized Primates; PTH1: 1 µg/kg for 18 months): 8.53 ± 10.54 µm/day
BFR/BV (Bone formation rate, bone volume referent) (Ovariectomized Primates; PTH1: 1 µg/kg for 18 months): 19.23 ± 5.93 %/year
Ct.Ar (Cortical area) (Ovariectomized Primates; PTH1: 1 µg/kg for 18 months): 37.61 ± 3.86 mm^2
FP (Formation period) (Ovariectomized Primates; PTH1: 1 µg/kg for 18 months): 63.44 ± 10.02 days
L.On.N/Ct.A (Number of fluorochrome labeled osteons per unit cortical area) (Ovariectomized Primates; PTH1: 1 µg/kg for 18 months): 1.26 ± 0.71 #/mm^2
MAR (Mineral apposition rate, intracortical) (Ovariectomized Primates; PTH1: 1 µg/kg for 18 months): 0.98 ± 0.12^a µm/day
MAR.Ec (Mineral apposition rate, endocortical surface) (Ovariectomized Primates; PTH1: 1 µg/kg for 18 months): 0.66 ± 0.15 µm/day
MAR.Ps (mineral apposition rate, periosteal surface) (Ovariectomized Primates; PTH1: 1 µg/kg for 18 months): 0.89 ± 0.95 µm/day
MS/BS.Ec (mineralizing endocortical surface normalized to total endocortical surface) (Ovariectomized Primates; PTH1: 1 µg/kg for 18 months): 25.19 ± 17.14%
MS/BS.Ps (Mineralizing periosteal surface normalized to total periosteal surface) (Ovariectomized Primates; PTH1: 1 µg/kg for 18 months): 8.59 ± 5.73%
Me.Ar (Medullary cavity area) (Ovariectomized Primates; PTH1: 1 µg/kg for 18 months): 16.61 ± 3.77 mm^2
O.Wi (Osteoid width) (Ovariectomized Primates; PTH1: 1 µg/kg for 18 months): 3.66 ± 0.67 µm
Po (Porosity, the percentage of bone area occupied by spaces) (Ovariectomized Primates; PTH1: 1 µg/kg for 18 months): 4.65 ± 4.78%
Rs.N/Ct.A (number of resorption spaces per unit cortical area) (Ovariectomized Primates; PTH1: 1 µg/kg for 18 months): 0.28 ± 0.18 #/mm^2
W.Wi (Osteonal wall width) (Ovariectomized Primates; PTH1: 1 µg/kg for 18 months): 61.36 ± 7.79 µm
omt (Osteoid maturation time) (Ovariectomized Primates; PTH1: 1 µg/kg for 18 months): 3.76 ± 0.70 days
Ac.F (Activation frequency) (Ovariectomized Primates; [3]): 2.05 ± 1.46^a cycles/year
B.Ar (Bone area, the total area within the periosteal surface) (Ovariectomized Primates; [3]): 58.16 ± 8.79^a mm^2
BFR/BS.Ec (bone formation rate, endocortical surface referent) (Ovariectomized Primates; [3]): 12.73 ± 16.33^a µm/day
BFR/BS.Ps (Bone formation rate, periosteal surface referent) (Ovariectomized Primates; [3]): 5.79 ± 4.05 µm/day
BFR/BV (Bone formation rate, bone volume referent) (Ovariectomized Primates; [3]): 2.21 ± 1.73^a %/year
Ct.Ar (Cortical area) (Ovariectomized Primates; [3]): 40.83 ± 5.80^a mm^2
FP (Formation period) (Ovariectomized Primates; [3]): 88.63 ± 52.90 days
L.On.N/Ct.A (Number of fluorochrome labeled osteons per unit cortical area) (Ovariectomized Primates; [3]): 0.38 ± 0.26^a #/mm^2
MAR (Mineral apposition rate, intracortical) (Ovariectomized Primates; [3]): 0.85 ± 0.28^a µm/day
MAR.Ec (Mineral apposition rate, endocortical surface) (Ovariectomized Primates; [3]): 0.63 ± 0.17 µm/day
MAR.Ps (mineral apposition rate, periosteal surface) (Ovariectomized Primates; [3]): 0.82 ± 0.15 µm/day
MS/BS.Ec (mineralizing endocortical surface normalized to total endocortical surface) (Ovariectomized Primates; [3]): 8.93 ± 15.39^a %
MS/BS.Ps (Mineralizing periosteal surface normalized to total periosteal surface) (Ovariectomized Primates; [3]): 2.30 ±3.76^a %
Me.Ar (Medullary cavity area) (Ovariectomized Primates; [3]): 17.34 ± 6.05 mm^2
O.Wi (Osteoid width) (Ovariectomized Primates; [3]): 3.76 ± 0.83 µm
Po (Porosity, the percentage of bone area occupied by spaces) (Ovariectomized Primates; [3]): 6.40 ± 4.22^a %
W.Wi (Osteonal wall width) (Ovariectomized Primates; [3]): 63.82 ± 8.31 µm
omt (Osteoid maturation time) (Ovariectomized Primates; [3]): 5.07 ± 2.65 days
Ac.F (Activation frequency) (Ovariectomized Primates; PTH5: 5 µg/kg for 18 months): 8.70 ± 3.97 cycles/year
B.Ar (Bone area, the total area within the periosteal surface) (Ovariectomized Primates; PTH5: 5 µg/kg for 18 months): 55.81 ± 6.24 mm^2
BFR/BS.Ec (bone formation rate, endocortical surface referent) (Ovariectomized Primates; PTH5: 5 µg/kg for 18 months): 34.04 ± 19.01 µm/day
BFR/BS.Ps (Bone formation rate, periosteal surface referent) (Ovariectomized Primates; PTH5: 5 µg/kg for 18 months): 8.99 ± 5.81 µm/day
BFR/BV (Bone formation rate, bone volume referent) (Ovariectomized Primates; PTH5: 5 µg/kg for 18 months): 12.93 ± 5.94^a %/year
Ct.Ar (Cortical area) (Ovariectomized Primates; PTH5: 5 µg/kg for 18 months): 40.96 ± 4.30^a mm^2
FP (Formation period) (Ovariectomized Primates; PTH5: 5 µg/kg for 18 months): 81.97 ± 95.63 days
L.On.N/Ct.A (Number of fluorochrome labeled osteons per unit cortical area) (Ovariectomized Primates; PTH5: 5 µg/kg for 18 months): 1.45 ± 0.47^a #/mm^2
MAR (Mineral apposition rate, intracortical) (Ovariectomized Primates; PTH5: 5 µg/kg for 18 months): 1.03 ± 0.23 µm/day
MAR.Ec (Mineral apposition rate, endocortical surface) (Ovariectomized Primates; PTH5: 5 µg/kg for 18 months): 0.75 ± 0.14 µm/day
MAR.Ps (mineral apposition rate, periosteal surface) (Ovariectomized Primates; PTH5: 5 µg/kg for 18 months): 0.66 ± 0.17 µm/day
MS/BS.Ec (mineralizing endocortical surface normalized to total endocortical surface) (Ovariectomized Primates; PTH5: 5 µg/kg for 18 months): 40.47 ± 24.68^a %
MS/BS.Ps (Mineralizing periosteal surface normalized to total periosteal surface) (Ovariectomized Primates; PTH5: 5 µg/kg for 18 months): 11.00 ± 9.63%
Me.Ar (Medullary cavity area) (Ovariectomized Primates; PTH5: 5 µg/kg for 18 months): 14.85 ± 4.72^a mm^2
O.Wi (Osteoid width) (Ovariectomized Primates; PTH5: 5 µg/kg for 18 months): 3.94 ± 1.13 µm
Po (Porosity, the percentage of bone area occupied by spaces) (Ovariectomized Primates; PTH5: 5 µg/kg for 18 months): 6.78 ± 4.23^a %
Rs.N/Ct.A (number of resorption spaces per unit cortical area) (Ovariectomized Primates; PTH5: 5 µg/kg for 18 months): 0.43 ± 0.26^a #/mm^2
W.Wi (Osteonal wall width) (Ovariectomized Primates; PTH5: 5 µg/kg for 18 months): 65.29 ± 9.43 µm
omt (Osteoid maturation time) (Ovariectomized Primates; PTH5: 5 µg/kg for 18 months): 6.45 ± 13.85 days
sustained hypercalcemia or kidney pathology [1]: no evidence of sustained hypercalcemia or kidney pathology
